Measured values: article PMC8981980 (Journal of medicinal chemistry, 2022)
“Also recorded” adds a separate entry of the source.

Key:
[1] = cited from earlier work
CSC stemness = settings: clonogenic colony formation assay; cited from earlier work
CHD1L = target: T1, CHD1L (Homo sapiens, UniProt Q86WJ1); assay: SAR summary from cat-CHD1L inhibition and cell-based assays; settings: SAR statement relative to parent / 1-carbon analogs
T1 sequence (Q86WJ1 41-540 limits assumed): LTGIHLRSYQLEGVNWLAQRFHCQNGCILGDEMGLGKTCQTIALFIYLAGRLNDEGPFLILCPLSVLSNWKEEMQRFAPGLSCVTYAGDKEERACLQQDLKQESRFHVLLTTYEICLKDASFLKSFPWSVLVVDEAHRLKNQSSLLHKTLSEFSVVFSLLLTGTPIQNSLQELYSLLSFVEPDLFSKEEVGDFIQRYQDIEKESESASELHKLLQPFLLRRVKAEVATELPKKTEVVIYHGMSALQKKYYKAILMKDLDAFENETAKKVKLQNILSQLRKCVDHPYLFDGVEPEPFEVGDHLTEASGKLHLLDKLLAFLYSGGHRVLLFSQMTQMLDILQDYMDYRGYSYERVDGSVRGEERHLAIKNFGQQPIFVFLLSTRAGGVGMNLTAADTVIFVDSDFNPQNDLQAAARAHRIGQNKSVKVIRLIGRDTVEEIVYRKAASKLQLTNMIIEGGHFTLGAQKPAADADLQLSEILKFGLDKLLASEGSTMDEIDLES

SW620 tumor organoids = assay: SW620 tumor organoid viability; assay type: cell-based; settings: compared to 6.1, 6.2 and 6.3; SI Table S1
[2] = In vitro mouse microsomal stability; settings: compared with 6.0 / other tested CHD1Li
[3] = system: HCT116 M-Phenotype tumor organoids (VimPro-GFP / EcadPro-RFP); assay: EMT dual-reporter 3D high-content imaging, HCT116 M-Phenotype tumor organoids; assay type: cell-based; settings: as treatment dose increases
[4] = system: SW620 isolated M-Phenotype flank tumors; assay: Xenograft antitumor efficacy study; assay type: in vivo, athymic nude mice

Cc1cc(Nc2ccc(NC(=O)Cc3cccs3)cc2)nc(N2CCCC2)n1 [6.0, N-(4-((6-methyl-2-(pyrrolidine-1-yl)pyrimidin-4-yl)amino)phenyl)-2-(thiophen-2-yl)acetamide]
maximum tolerated dose ([1]; intraperitoneal (IP) daily over five days): 50 mg/kg | liver toxicity ([1]; mice, 50 mg/kg IP daily over five days): does not display any liver toxicity | CSC stemness (CSC stemness): significantly inhibits CSC stemness

Cc1nc(N2CCCC2)nc(Nc2ccc(NC(=O)Cc3cccs3)cc2)c1F [6.1, N-(4-((5-fluoro-6-methyl-2-(pyrrolidin-1-yl)pyrimidin-4-yl)amino)phenyl)-2-(thiophen-2-yl)acetamide]
biological activity (cat-CHD1L inhibition and cell-based models) (CHD1L): loss of inhibitor activity; also recorded: significant loss in activity

O=C(Cc1cccs1)Nc1ccc(Nc2nc(N3CCCC3)ncc2F)cc1 [6.2, N-(4-((5-fluoro-2-(pyrrolidin-1-yl)pyrimidin-4-yl)amino)phenyl)-2-(thiophen-2-yl)acetamide]
biological activity (cat-CHD1L inhibition and cell-based models) (CHD1L): loss of inhibitor activity

Cc1nc(N2CCCC2)nc(N(C)c2ccc(NC(=O)Cc3cccs3)cc2)c1F [6.3, N-(4-((5-fluoro-6-methyl-2-(pyrrolidin-1-yl)pyrimidin-4-yl)(methyl)amino)phenyl)-2-(thiophen-2-yl)acetamide]
biological activity (cat-CHD1L inhibition and cell-based models) (CHD1L): loss of inhibitor activity; also recorded: diminished biological activity

Cc1cc(Nc2ccc(NC(=O)c3c[nH]c4ccccc34)cc2)nc(N2CCCC2)n1 [6.4, N-(4-((6-methyl-2-(pyrrolidin-1-yl)pyrimidin-4-yl)amino)phenyl)-1H-indole-3-carboxamide]
cell-based antitumor activity (potency) (SW620 tumor organoids): maintained potency | metabolic stability to mouse liver microsomes [2]: increased the metabolic stability

Cc1cc(Nc2ccc(NC(=O)Cc3c[nH]c4ccccc34)cc2)nc(N2CCCC2)n1 [6.5, 2-(1H-indol-3-yl)-N-(4-((6-methyl-2-(pyrrolidin-1-yl)pyrimidin-4-yl)amino)phenyl)acetamide]
EcadPro-RFP promoter activity [3]: upregulation | VimPro-GFP promoter activity [3]: marked downregulation | metabolic stability to mouse liver microsomes [2]: increased the metabolic stability

Cc1cc(Nc2ccc(NC(=O)CCc3c[nH]c4ccccc34)cc2)nc(N2CCCC2)n1 [6.6, 3-(1H-indol-3-yl)-N-(4-((6-methyl-2-(pyrrolidin-1-yl)pyrimidin-4-yl)amino)phenyl) propanamide]
biological activity (cat-CHD1L inhibition and cell-based models) (CHD1L): loss of activity

Cc1cc(Nc2ccc(NC(=O)CCCc3c[nH]c4ccccc34)cc2)nc(N2CCCC2)n1 [6.7, 4-(1H-indol-3-yl)-N-(4-((6-methyl-2-(pyrrolidin-1-yl)pyrimidin-4-yl)amino)phenyl)butanamide]
biological activity (cat-CHD1L inhibition and cell-based models) (CHD1L): loss of activity

Cc1cc(Nc2ccc(NC(=O)/C=C/c3c[nH]c4ccccc34)cc2)nc(N2CCCC2)n1 [6.8, (E)-3-(1H-indol-3-yl)-N-(4-((6-methyl-2-(pyrrolidin-1-yl)pyrimidin-4-yl)amino)phenyl) acrylamide]
biological activity (cat-CHD1L inhibition and cell-based models) (CHD1L): restores activity

COc1cnc(N2CCCC2)nc1Nc1ccc(NC(=O)Cc2cccs2)cc1 [6.10, N-(4-((5-methoxy-2-(pyrrolidin-1-yl)pyrimidin-4-yl)amino)phenyl)-2-(thiophen-2-yl)acetamide]
biological activity (cat-CHD1L inhibition and cell-based models) (CHD1L): significant loss in activity

Cc1cc(Nc2ccc(NC(=O)Cc3cc(Br)cs3)cc2)nc(N2CCCC2)n1 [6.11, 2-(4-bromothiophen-2-yl)-N-(4-((6-methyl-2-(pyrrolidin-1-yl)pyrimidin-4-yl)amino)phenyl) acetamide]
tolerability / gross toxicity ([4]; PO 75 mg/kg and 125 mg/kg 5-days/week over 30 days): no adverse gross toxicity | tumor volume ([4]; PO 75 mg/kg and 125 mg/kg 5-days/week over 30 days, from day 20, highly significant after 28 days, vs vehicle): significant decrease in tumor volume | body weight ([4]; during the treatment period, PO 28 days): increased body weight | biological activity (cat-CHD1L inhibition and cell-based models) (CHD1L): most promising in vitro biological activity | metabolic stability to mouse liver microsomes [2]: most metabolically stable; also recorded: increased the metabolic stability

Cc1cc(Oc2ccc(NC(=O)Cc3cccs3)cc2)nc(Cl)n1 [6.12, N-(4-((2-chloro-6-methylpyrimidin-4-yl)oxy)phenyl)-2-(thiophen-2-yl)acetamide]
biological activity (cat-CHD1L inhibition and cell-based models) (CHD1L): significant loss of activity

Cc1cc(Oc2ccc(NC(=O)Cc3cccs3)cc2)nc(N2CCCC2)n1 [6.13, N-(4-((6-methyl-2-(pyrrolidin-1-yl)pyrimidin-4-yl)oxy)phenyl)-2-(thiophen-2-yl)acetamide]
biological activity (cat-CHD1L inhibition and cell-based models) (CHD1L): significant loss of activity

Cc1cc(Oc2ccc(NC(=O)c3c[nH]c4ccccc34)cc2)nc(N2CCCC2)n1 [6.14, N-(4-((6-methyl-2-(pyrrolidin-1-yl)pyrimidin-4-yl)oxy)phenyl)-1H-indole-3-carboxamide]
biological activity (cat-CHD1L inhibition and cell-based models) (CHD1L): significant loss of activity

Cc1cc(Nc2ccc(NC(=O)Cc3cccs3)cc2)nc(N2CCOCC2)n1 [6.15, N-(4-((6-methyl-2-morpholinopyrimidin-4-yl)amino)phenyl)-2-(thiophen-2-yl)acetamide]
biological activity (cat-CHD1L inhibition and cell-based models) (CHD1L): significant loss in biological activity

Cc1cc(Nc2ccc(NC(=O)Cc3cc(Cl)nc4ccccc34)cc2)nc(N2CCCC2)n1 [6.31]
metabolic stability to mouse liver microsomes [2]: increased the metabolic stability
